Reference: patent EP2698384A1, “Detection of synthetic cannabinoids” (priority 2012, dated 2014)
Read-outs that look alike come from different tables or passages of the source.

Legend:
Assay type in all cases: binding, sheep
[1] = tested on: Antibody to Immunogen III
Description: (§1) The wells of an enhanced binding 96 well polystyrene microtiter plate were coated with IgG fraction of antiserum raised to Immunogen VI, diluted in 10mM Tris, pH8.5 (125µl/well). The appropriate antibody coating dilution was determined using standard ELISA checkerboard techniques. The plate was incubated overnight at 4°C, washed 4 times over 10 minutes with Tris buffered saline containing Tween 20 (TBST) and tapped dry. Standard solutions of RCS-4 were prepared in TBST at 0, 0.3125, 0.625, 1.25, 2.5, 5, 10 and 20ng/ml, and 50µl of each was added to the appropriate wells (see figure 1). 75µl of conjugate (appropriate hapten-HRP) diluted in Tris buffer (pH 7.2) containing EDTA, D-mannitol, sucrose, thimerosal and BSA, was added to each of the wells. The appropriate dilution of conjugate was also determined using standard ELISA checkerboard techniques. The plate was incubated at 25°C for 1 hour. Excess unbound conjugate was removed by washing 6 times over a 10 minute period with TBST. 125µl oftetramethylbenzidine (TMB) substrate solution was added to each well of the plate that was then incubated for 20 minutes in the dark at room temperature. The reaction was terminated by addition of 125µl 0.2M H2SO4 to each well. The absorbance was then measured at 450nm using a microtiter plate reader. The data are inputted to a computer program called 'KC Junior'. It is a 4 parameter fit curve and allow the calculatation of concentrations between the standard runs. This program is used to calculate the IC50s by dividing the 0ng/ml OD value by 2 and obtaining the concentration value from the curve for this OD.
In a similar manner to that described above, the wells of a 96-well microtiter plate were coated with the IgG fraction of the antiserum raised to Immunogens I, II or III. Standard solutions (JWH-250 for Immunogen III) were applied at 0, 0.625, 1.25, 2.5, 5, 10, 20 and 40ng/ml and conjugate was employed as detection reagent.
(§2) The data set our in Tables 3 and 4 are generated using antibodies raised against the indicated Immunogens in a competitive binding assay with the indicated tracers, using the indicated standards: Table 2
(§3) In order to determine the specificity of the competitive ELISAs, standard solutions of a range of structurally similar synthetic cannabinoids and their metabolites were prepared in TBST. Using the calibration curves generated and employing a single level of cross reactants, these were used to determine the cross-reactivity of each immunoassay with these substances. Table 4: Cross reactivity of the competitive ELISAs for synthetic cannabinoids and their metabolites

Antibody to Immunogen V = tested on: Antibody to Immunogen V
Description: as §1
In a similar manner to that described above, the wells of a 96-well microtiter plate were coated with the IgG fraction of the antiserum raised to Immunogens IV, V, VII or VIII. Standard solutions (RCS-8 for Immunogen V) were prepared in TBST at 0, 1.25, 2.5, 5, 10, 20, 40 and 80ng/ml and conjugate was employed as detection reagent.
as §2, §3

Antibody to Immunogen VI = tested on: Antibody to Immunogen VI
Description: as §1, §2, §3

[2] = Cross-reactants at 100 ng/ml, 1000ng/ml, single level of cross reactants
[3] = Cross-reactants at 100 ng/ml, 1000ng/ml, single level of cross reactants, listed as JWH-164 (JWH-081 7-methoxynaphthyl isomer)

| Compound | %B/B0 [1, 2] [%] | %B/B0 (Antibody to Immunogen V; [2]) [%] | %B/B0 (Antibody to Immunogen VI; [2]) [%] | further results |
| --- | --- | --- | --- | --- |
| O=C(c1cccc2ccccc12)c1cn(CCCCCO)c2ccccc12 [JWH-018 N-(5-hydroxypentyl) metabo lite] | 89.74 | 70.25 | 61.67 |  |
| CCc1ccc(C(=O)c2cn(CCCCCC(=O)O)c3ccccc23)c2ccccc12 [JWH-210 N-(5-carboxypentyl) metabo lite] | 94.24 | 70.77 | 63.50 |  |
| CCCCCn1c(C)c(C(=O)c2cccc3ccccc23)c2ccccc21 [JWH-007] | 81.87 | 75.22 | 81.74 |  |
| COc1ccc(C(=O)c2c(C)n(CCN3CCOCC3)c3ccccc23)cc1 [WIN-48,098 (other name Pravadoline), Pravadoline] | 89.21 | 77.87 | 23.84 |  |
| CCCCCn1cc(C(=O)c2ccc(CCC)c3ccccc23)c2ccccc21 [JWH-182] | 76.14 | 82.38 | 85.69 |  |
| CCCCCn1cc(C(=O)Cc2ccccc2Cl)c2ccccc21 [JWH-203] | 18.15 | 15.33 | 83.09 |  |
| CCCCn1c(C)c(C(=O)c2cccc3ccccc23)c2ccccc21 [JWH-016] | 82.93 | 69.38 | 80.10 |  |
| CCCCCn1cc(C(=O)c2cccc3ccccc23)c2cccc(O)c21 | 97.89 | 80.99 | 91.71 |  |
| CCCC(C)n1cc(C(=O)c2cccc3ccccc23)c2ccccc21 (single isomer, unassigned) [JWH-018 N-(1-methylbutyl) isomer] | 87.31 | 76.65 | 85.57 |  |
| CCCCCCC(C)(C)c1cc(O)c2c(c1)OC(C)(C)[C@@H]1CC=C(CO)C[C@@H]21 [HU-210] | 91.13 | 67.43 | 90.89 |  |
| Cc1ccc(C(=O)c2cn(CCCCCO)c3ccccc23)c2ccccc12 [JWH-122 N-(5-hydroxypentyl) metabo lite] | 81.72 | 68.77 | 71.84 |  |
| CCCCCCC(C)(C)c1cc(OC)c([C@@H]2C=C(CO)[C@@H]3C[C@H]2C3(C)C)c(OC)c1 [HU-308] | 96.26 | 71.33 | 97.34 |  |
| COc1ccc(C(=O)c2c(C)n(CCN3CCOCC3)c3cc(I)ccc23)cc1 [AM-630 (other name 6-Iodopravadoline), 6-Iodopravadoline] | 91.34 | 71.78 | 39.25 |  |
| CCCCCn1cc(C(=O)c2ccc3ccccc3c2)c2ccccc21 [JWH 018 2'-naphthyl isomer] | 76.35 | 88.32 | 44.48 |  |
| O=C(c1cccc2ccccc12)c1cn(CCN2CCOCC2)c2ccccc12 [WIN 55,225 (other name JWH-200)] | 88.39 | 49.45 | 71.03 |  |
| CCCCn1cc(C(=O)c2cccc3ccccc23)c2ccc(O)cc21 | 94.60 | 68.70 | 84.50 |  |
| O=C(c1cccc2ccccc12)c1cn(CCCCCF)c2ccccc12 [AM-2201] | 67.95 | 76.07 | 76.96 |  |
| CCCCCn1cc(C(=O)Cc2ccc(OC)cc2)c2ccccc21 [JWH-201] | 27.93 | 68.62 | 69.32 |  |
| CCCCCn1cc(C(=O)c2cccc3ccc(OC)cc23)c2ccccc21 [JWH-081 7-methoxynaphthyl isomer (JWH-164)] | 75.18 | 87.25 | 92.27 | %B/B0 [1, 3]: 72.63%; %B/B0 (Antibody to Immunogen V; [3]): 82.81%; %B/B0 (Antibody to Immunogen VI; [3]): 89.29% |
| CCCCCn1cc(C(=O)c2cccc3c(Cl)cccc23)c2ccccc21 [JWH-398 5-chloronaphthyl isomer] | 64.92 | 70.34 | 76.13 |  |

| Compound | %B/B0 [1, 2] [%] | %B/B0 (Antibody to Immunogen V; [2]) [%] | %B/B0 (Antibody to Immunogen VI; [2]) [%] | further results |
| --- | --- | --- | --- | --- |
| (-)-11-nor-9-Carboxy-delta9-THC |  |  |  | %B/B0 [1]: 89.45%; %B/B0 (Antibody to Immunogen V): 89.31%; %B/B0 (Antibody to Immunogen VI): 96.32% |
| CCCCCCC(C)(C)c1ccc([C@@H]2C[C@H](O)CC[C@H]2CCCO)c(O)c1 (racemic) [((+-)-CP 55,940)] | 93.49 | 80.97 | 98.86 |  |
| CCCCCc1cc(O)c2c(c1)OC(C)(C)c1ccc(C)cc1-2 [Cannabinol] | 97.02 | 64.54 | 95.90 |  |
| CCCCCn1cc(C(=O)Cc2cccc(OC)c2)c2ccccc21 [JWH-302] | 19.97 | 32.66 | 71.16 |  |
| CCCCn1cc(C(=O)c2cccc3ccccc23)c2cccc(O)c21 | 95.81 | 73.04 | 81.62 |  |
| O=C(c1ccc(Cl)c2ccccc12)c1cn(CCCCCO)c2ccccc12 [JWH-398 N-(5-hydroxypentyl) metabo lite] | 76.01 | 55.87 | 69.24 |  |
| CCCCCn1cc(C(=O)c2ccc(Cl)c3ccccc23)c2ccccc21 [JWH-398] | 71.37 | 65.76 | 72.30 |  |
| O=C(c1cccc2ccccc12)c1cn(CCCCO)c2ccccc12 [JWH-073 N-(4-hydroxybutyl) metabolite] | 87.63 | 63.73 | 70.57 |  |
| CS(=O)(=O)O.Cc1c(C(=O)c2cccc3ccccc23)c2cccc3c2n1[C@@H](CN1CCOCC1)CO3 [Win 55,212-3 mesylate] | 87.64 | 72.78 | 83.98 |  |
| O=C(O)c1c[nH]c2ccccc12 [Indole-3-carboxylic Acid] | 91.19 | 64.69 | 95.41 |  |
| CCCCCn1cc(C(=O)c2ccc(CC)c3ccccc23)c2cc(O)ccc21 [JWH-210 5-hydroxyindole metabolite] | 87.01 | 79.94 | 86.92 |  |
| CCCCCn1cc(C(=O)c2cccc3ccccc23)c2ccc(O)cc21 | 92.91 | 75.65 | 91.26 |  |
| CS(=O)(=O)O.Cc1c(C(=O)c2cccc3ccccc23)c2cccc3c2n1[C@H](CN1CCOCC1)CO3 [(+)WIN 55212-2 (mesylate)] | 93.28 | 68.43 | 91.65 |  |
| CCCCCn1ccc(C(=O)c2cccc3ccccc23)c1 [JWH-030] | 95.34 | 77.27 | 86.70 |  |
| COc1ccc(C(=O)c2cn(CCCCCO)c3ccccc23)c2ccccc12 [JWH-081 N-(5-hydroxypentyl) metabolite] | 76.44 | 72.78 | 69.47 |  |
| COc1ccccc1CC(=O)c1cn(CCCCCO)c2ccccc12 [JWH 250 N-(5-hydroxypentyl) metabo lite] | 48.72 | 6.88 | 78.58 |  |
| CCCCCn1cc(C(=O)c2cccc3ccccc23)c2c(O)cccc21 | 82.22 | 83.42 | 92.00 |  |
| CCCCCn1cc(C(=O)C23CC4CC(CC(C4)C2)C3)c2ccccc21 [JWH 018 adamantyl analog] | 84.69 | 86.65 | 93.91 |  |
| COc1ccccc1CC(=O)c1cn(CCC2CCCCC2)c2ccccc12 [RCS-8 (SR-18)] | 64.72 | 8.34 | 85.46 | IC50 (Antibody to Immunogen V; standard RCS-8, standard concentration which produces 50% B/B0): 7.23 ng/mL; %B/B0 (Antibody to Immunogen V; standard curve, RCS-8 1.25 ng/ml): 82%; %B/B0 (Antibody to Immunogen V; standard curve, RCS-8 2.5 ng/ml): 71%; %B/B0 (Antibody to Immunogen V; standard curve, RCS-8 5 ng/ml): 57%; %B/B0 (Antibody to Immunogen V; standard curve, RCS-8 10 ng/ml): 43%; %B/B0 (Antibody to Immunogen V; standard curve, RCS-8 20 ng/ml): 34%; %B/B0 (Antibody to Immunogen V; standard curve, RCS-8 40 ng/ml): 25%; %B/B0 (Antibody to Immunogen V; standard curve, RCS-8 80 ng/ml): 19% |
